Like-named read-outs stand apart in the source and are kept apart here.
Key:
Bmi-1 protein = test: Sandwich ELISA Assay (Bmi-1 protein level in HT-1080 cells after compound treatment); type: cell-based
How it was run: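 Sandwich ELISA quantified Bmi-1 protein against recombinant standard (125–8000 pg/mL), with lysates captured overnight at 4 °C and signal by HRP/TMB at 450 nm (570 nm reference). Lysates came from HT-1080 cells incubated 40–48 h with test compounds in 0.5% DMSO.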

[1] = Table 1, Bmi-1 sandwich ELISA, read-out: ELISA EC50 value for Bmi-1 protein
[2] = read-out: ELISA EC50 value for Bmi-1 protein, Table 1, Bmi-1 sandwich ELISA

Structure (SMILES) | melting point [°C] | EC50 (Bmi-1 protein; [1]) [µM] | EC50 (Bmi-1 protein; [2]) [µM]
Nc1cc(Nc2ccc(OC(F)F)cc2)nc(-c2c(C3CC3)nc3ccc(F)cn23)c1 [compound 365, 6-(2-cyclopropyl-6-fluoroimidazo[1,2-a]pyridin-3-yl)-N^2-[4-(difluoromethoxy)phenyl]pyridine-2,4-diamine] | 185 to 186 | 0.1 to 3 | 
Nc1cc(Nc2ccc(OC(F)F)c(F)c2)nc(-c2c(C3CC3)nc3ccc(F)cn23)c1 [compound 366, 6-(2-cyclopropyl-6-fluoroimidazo[1,2-a]pyridin-3-yl)-N^2-[4-(difluoromethoxy)-3-fluorophenyl]pyridine-2,4-diamine] | 169 to 170 | 0.1 to 3 | 
Nc1cc(Nc2ccc(OC(F)(F)F)cc2)nc(-c2c(C3CC3)nc3ccc(F)cn23)c1 [compound 367, 6-(2-cyclopropyl-6-fluoroimidazo[1,2-a]pyridin-3-yl)-N^2-[4-(trifluoromethoxy)phenyl]pyridine-2,4-diamine] | 166 to 168 | 0.01 to 0.1 | 
NS(=O)(=O)Nc1cc(Nc2ccc(C(F)(F)F)cc2)nc(-c2c(C3CC3)nc3ccc(F)cn23)c1 [compound 368, N-[2-(2-cyclopropyl-6-fluoroimidazo[1,2-a]pyridin-3-yl)-6-{[4-(trifluoromethyl)phenyl]amino}pyridin-4-yl]sulfuric diamide] | 158 to 160 | 0.1 to 3 | 
NC(=O)Nc1cc(Nc2ccc(C(F)(F)F)cc2)nc(-c2c(C3CC3)nc3ccc(F)cn23)c1 [compound 369, 1-[2-(2-cyclopropyl-6-fluoroimidazo[1,2-a]pyridin-3-yl)-6-{[4-(trifluoromethyl)phenyl]amino}pyridin-4-yl]urea] | 232 to 235 |  | 0.1 to 3
CCn1nc(C)c(-c2cncc(Nc3ccc(OC(F)F)c(F)c3)n2)c1C [compound 382, N-[4-(difluoromethoxy)-3-fluorophenyl]-6-(1-ethyl-3,5-dimethyl-1H-pyrazol-4-yl)pyrazin-2-amine] | 129 to 130 | 0.001 to 0.01 | 
Cc1nn(Cc2ccccn2)c(C)c1-c1cncc(Nc2ccc(C(F)(F)F)cc2)n1 [compound 400, 6-[3,5-dimethyl-1-(pyridin-2-ylmethyl)-1H-pyrazol-4-yl]-N-[4-(trifluoromethyl)phenyl]pyrazin-2-amine] | 50 to 51 | 0.1 to 3 | 
Cc1nn(Cc2ccccn2)c(C)c1-c1cncc(Nc2ccc(OC(F)F)cc2)n1 [compound 401, N-[4-(difluoromethoxy)phenyl]-6-[3,5-dimethyl-1-(pyridin-2-ylmethyl)-1H-pyrazol-4-yl]pyrazin-2-amine] | 47 to 48 | 0.1 to 3 | 
Cc1nn(Cc2cccnc2)c(C)c1-c1cncc(Nc2ccc(C(F)(F)F)cc2)n1 [compound 402, 6-[3,5-dimethyl-1-(pyridin-3-ylmethyl)-1H-pyrazol-4-yl]-N-[4-(trifluoromethyl)phenyl]pyrazin-2-amine] | 47 to 48 | 0.01 to 0.1 | 
Cc1nn(Cc2ccncc2)c(C)c1-c1cncc(Nc2ccc(C(F)(F)F)cc2)n1 [compound 403, 6-[3,5-dimethyl-1-(pyridin-4-ylmethyl)-1H-pyrazol-4-yl]-N-[4-(trifluoromethyl)phenyl]pyrazin-2-amine] | 66 to 67 | 0.01 to 0.1 | 
Cc1nn(CC[C@H](O)CO)c(C)c1-c1cncc(Nc2ccc(C(F)(F)F)cc2)n1 [compound 404, (2S)-4-[3,5-dimethyl-4-(6-{[4-(trifluoromethyl)phenyl]amino}pyrazin-2-yl)-1H-pyrazol-1-yl]butane-1,2-diol] | 75 to 77 | 0.1 to 3 | 
N#Cc1cc(Nc2ccc(C(F)(F)F)cc2)nc(-n2c(C3CC3)nc3ccc(F)cc32)c1 [compound 410, 2-(2-cyclopropyl-6-fluoro-1H-benzimidazol-1-yl)-6-{[4-(trifluoromethyl)phenyl]amino}pyridine-4-carbonitrile] | 291 to 293 | 0.01 to 0.1 | 
Cc1nc2ncc(F)cn2c1-c1cc(C#N)cc(Nc2ccc(C(F)(F)F)cc2)n1 [compound 437, 2-(6-fluoro-2-methylimidazo[1,2-a]pyrimidin-3-yl)-6-{[4-(trifluoromethyl)phenyl]amino}pyridine-4-carbonitrile] | 290 to 292 | 0.001 to 0.01 | 
Cc1nc2ncc(F)cn2c1-c1cc(C#N)cc(Nc2ccc(OC(F)F)c(F)c2)n1 [compound 439, 2-{[4-(difluoromethoxy)-3-fluorophenyl]amino}-6-(6-fluoro-2-methylimidazo[1,2-a]pyrimidin-3-yl)pyridine-4-carbonitrile] | 268 to 270 | 0.01 to 0.1 | 
Cc1nc2c(F)cc(F)cn2c1-c1cc(C#N)cc(Nc2ccc(C(F)(F)F)cc2)n1 [compound 441, 2-(6,8-difluoro-2-methylimidazo[1,2-a]pyridin-3-yl)-6-{[4-(trifluoromethyl)phenyl]amino}pyridine-4-carbonitrile] | 243 to 245 | 0.001 to 0.01 | 
Cc1nc2c(F)cc(F)cn2c1-c1cc(C#N)cc(Nc2ccc(OC(F)F)cc2)n1 [compound 442, 2-{[4-(difluoromethoxy)phenyl]amino}-6-(6,8-difluoro-2-methylimidazo[1,2-a]pyridin-3-yl)pyridine-4-carbonitrile] | 236 to 238 | 0.001 to 0.01 | 
Cc1nc2c(F)cc(F)cn2c1-c1cc(C#N)cc(Nc2ccc(OC(F)(F)F)cc2)n1 [compound 443, 2-(6,8-difluoro-2-methylimidazo[1,2-a]pyridin-3-yl)-6-{[4-(trifluoromethoxy)phenyl]amino}pyridine-4-carbonitrile] | 213 to 216 | 0.01 to 0.1 | 
Cc1nc2c(F)cc(F)cn2c1-c1cc(C#N)cc(Nc2ccc(OC(F)F)c(F)c2)n1 [compound 444, 2-{[4-(difluoromethoxy)-3-fluorophenyl]amino}-6-(6,8-difluoro-2-methylimidazo[1,2-a]pyridin-3-yl)pyridine-4-carbonitrile] | 238 to 241 | 0.01 to 0.1 | 
Fc1cc(F)c2nc(C3CC3)n(-c3cncc(Nc4ccc(C(F)(F)F)cc4)n3)c2c1 [compound 461, 6-(2-cyclopropyl-4,6-difluoro-1H-benzimidazol-1-yl)-N-[4-(trifluoromethyl)phenyl]pyrazin-2-amine] | 247 to 249 |  | 0.01 to 0.1
Fc1cc(F)c2nc(C3CC3)n(-c3cncc(Nc4ccc(OC(F)F)cc4)n3)c2c1 [compound 462, 6-(2-cyclopropyl-4,6-difluoro-1H-benzimidazol-1-yl)-N-[4-(difluoromethoxy)phenyl]pyrazin-2-amine] | 202 to 203 | 0.01 to 0.1 | 
Fc1cc(F)c2nc(C3CC3)n(-c3cncc(Nc4ccc(OC(F)(F)F)cc4)n3)c2c1 [compound 463, 6-(2-cyclopropyl-4,6-difluoro-1H-benzimidazol-1-yl)-N-[4-(trifluoromethoxy)phenyl]pyrazin-2-amine] | 218 to 220 | 0.1 to 3 | 
Fc1cc(F)c2nc(C3CC3)n(-c3cncc(Nc4ccc(C(F)(F)F)nc4)n3)c2c1 [compound 464, 6-(2-cyclopropyl-4,6-difluoro-1H-benzimidazol-1-yl)-N-[6-(trifluoromethyl)pyridin-3-yl]pyrazin-2-amine] | 267 to 270 | 0.01 to 0.1 | 
N#Cc1cc(Nc2ccc(C(F)(F)F)cc2)nc(-c2c(C(F)F)nc3ccc(F)cn23)c1 [compound 466, 2-[2-(difluoromethyl)-6-fluoroimidazo[1,2-a]pyridin-3-yl]-6-{[4-(trifluoromethyl)phenyl]amino}pyridine-4-carbonitrile] | 249 to 251 | 0.01 to 0.1 | 
N#Cc1cc(Nc2ccc(OC(F)F)cc2)nc(-c2c(C(F)F)nc3ccc(F)cn23)c1 [compound 467, 2-{[4-(difluoromethoxy)phenyl]amino}-6-[2-(difluoromethyl)-6-fluoroimidazo[1,2-a]pyridin-3-yl]pyridine-4-carbonitrile] | 215 to 217 | 0.001 to 0.01 | 
Cc1cc(Nc2cc(C#N)cc(-c3c(C(F)F)nc4ccc(F)cn34)n2)cnc1OC(F)F [compound 468, 2-{[6-(difluoromethoxy)-5-methylpyridin-3-yl]amino}-6-[2-(difluoromethyl)-6-fluoroimidazo[1,2-a]pyridin-3-yl]pyridine-4-carbonitrile] | 239 to 241 | 0.01 to 0.1 | 
N#Cc1cc(Nc2ccc(C(F)(F)F)nc2)nc(-c2c(C(F)F)nc3ccc(F)cn23)c1 [compound 469, 2-[2-(difluoromethyl)-6-fluoroimidazo[1,2-a]pyridin-3-yl]-6-{[6-(trifluoromethyl)pyridin-3-yl]amino}pyridine-4-carbonitrile] | 285 to 288 | 0.01 to 0.1 | 
Cc1cc(Nc2cc(C#N)cc(-c3c(C)nc4ccc(F)cn34)n2)cnc1OC(F)F [compound 470, 2-{[6-(difluoromethoxy)-5-methylpyridin-3-yl]amino}-6-(6-fluoro-2-methylimidazo[1,2-a]pyridin-3-yl)pyridine-4-carbonitrile] | 219 to 222 | 0.1 to 3 | 
Cc1cc(Nc2cc(C#N)cc(-c3c(C)nc4c(F)cc(F)cn34)n2)cnc1OC(F)F [compound 471, 2-{[6-(difluoromethoxy)-5-methylpyridin-3-yl]amino}-6-(6,8-difluoro-2-methylimidazo[1,2-a]pyridin-3-yl)pyridine-4-carbonitrile] | 236 to 238 | 0.1 to 3 | 
Fc1ccc2nc(C(F)F)c(-c3cncc(Nc4ccc(C(F)(F)F)cc4)n3)n2c1 [compound 472, 6-[2-(difluoromethyl)-6-fluoroimidazo[1,2-a]pyridin-3-yl]-N-[4-(trifluoromethyl)phenyl]pyrazin-2-amine] | 180 to 182 | 0.001 to 0.01 | 

Reference: patent US10584115B2, “Substituted pyridine and pyrazine BMI-1 inhibitors” (PTC Therapeutics, Inc., priority 2013, dated 2020)
